Source: US8969405B2, “Anticancer compounds and methods of making and using same” (St. Jude Children's Research Hospital, priority 2008, dated 2015)

What was measured:
[1] = system: JeKo-1 mantle cell lymphoma cell line; assay: In vitro cytotoxicity analysis (XTT), 72-hour exposure; assay type: cell-based; details: Homo sapiens, JEKo1 cells
Description: (§1) Briefly, cell lines were seeded at various cell densities depending on the cell type.
(§2) Tables 1-3 display cytotoxicity data for exemplary compounds following a 72-hour exposure.

[2] = system: PC-3 prostate cancer cell line; assay: as above; assay type: cell-based; details: Homo sapiens, PC3 cells
Description: as §1, §2

[3] = system: NOD/SCID mice; assay: Mouse maximum tolerated dose (MTD) study; assay type: in vivo; details: for fatality: daily for five days, three mice per group
Description: The mice were monitored for one week following compound administration. […] There was one fatality in the IP 25 mg/kg and one in the IV 50 mg/kg groups.

[4] = system: JeKo-1 mantle cell lymphoma tumors; assay: In vivo efficacy study, JeKo-1 tumor-bearing mice
Description: Arrows indicate the dosing schedule. The data are represented as mean±SEM.
Studies were carried out to determine whether the above doses were capable of inhibiting tumor growth in mice (FIG. 4). […] A widely used criterion for determining antitumor activity is tumor growth inhibition (T/C). This value is calculated by dividing the median tumor volumes of treated mice by the median volumes in control mice.

[5] = Stability study in buffer solution by HPLC; assay type: physicochemical; details: 100 μM in PBS buffer and DMSO (2:1)
Description: Stability studies were performed for exemplary compounds 48 and 15. A 100 μM solution of compound 48 was prepared in buffer (PBS, pH 7.4) and warfarin was used as an internal standard. A sample was injected into a HPLC periodically starting at day 0 and ending at about 6 weeks to find out the stability of compound 48 in PBS solution. […] After 6 weeks, 58% of compound 48 remained in the buffer solution.

[6] = system: cell cycle; details: reported in the literature; cited from earlier work
[7] = system: experimental tumors in mice; details: reported, Nakajima et al. 1996; cited from earlier work

| SMILES | IC50 [1] | IC50 [2] | fatality ([3]; IP 25 mg/kg group) | fatality ([3]; IV 50 mg/kg group) | blood cell counts in treated versus vehicle-only mice ([3]; NOD/SCID mice, 5-50 mg/kg daily for five days, IV and IP) | weight loss ([3]; NOD/SCID mice, 5-50 mg/kg daily for five days, IV and IP, monitored one week after dosing) | total necropsies, organ histologies ([3]; NOD/SCID mice, treatment and vehicle-only groups) | fatalities or weight loss in efficacy study ([4]; 5, 10, 25, or 50 mg/kg IV daily for five consecutive days) | tumor volumes compared to vehicle-treated mice ([4]; 10, 25, or 50 mg/kg IV daily for five consecutive days from day 4) | compound remaining in the buffer ([5]; after 6 weeks) | half-life at 100 μM ([5]; read-out: calculated half life (converted)) | effect on the cell cycle [6] | activity in in vivo cancer animal models [7] |
| --- | --- | --- | --- | --- | --- | --- | --- | --- | --- | --- | --- | --- | --- |
| CC(/C=C/[C@@H]1C[C@]2(CO2)CC(C)(C)O1)=C\C[C@H]1CC[C@@H](NC(=O)/C=C\[C@H](C)OC(=O)C(C)C)CC1 [Compound 15, (S,Z)-5-((1R,4R)-4-((2E,4E)-5-((3R,5S)-7,7-dimethyl-1,6-dioxaspiro[2.5]octan-5-yl)-3-methylpenta-2,4-dienyl)cyclohexylamino)-5-oxopent-3-en-2-yl isobutyrate] | 0.04 µM | 1.9 µM | one | one | No significant differences | No significant weight loss | no significant toxicities | No fatalities or significant weight loss | statistically significant decreases | 53% | 50.6 days |  |  |
| CC(=O)O[C@@H](C)/C=C\C(=O)N[C@@H]1C[C@H](C)[C@H](C/C=C(C)/C=C/[C@H]2O[C@](C)(O)C[C@@]3(CO3)[C@@H]2O)O[C@@H]1C [FR901464] |  |  |  |  |  |  |  |  |  |  |  | cell cycle arrest at the G1 and G2/M phases | showed activity |
| CC[C@H](O)[C@@H](C)[C@H]1O[C@@H]1C[C@H](C)/C=C/C=C(\C)[C@H]1OC(=O)C[C@H](O)CC[C@@](C)(O)[C@@H](OC(C)=O)/C=C/[C@@H]1C [pladienolide] |  |  |  |  |  |  |  |  |  |  |  | cell cycle arrest at the G1 and G2/M phases |  |
